Results on one compound are retold here after US12336989B2, “Transmucosal methods for treating psychiatric and neurological conditions” (INTRA-CELLULAR THERAPIES, INC., priority 2017, dated 2025).

Data set [1] in a line: Example 2: pharmacokinetics of oral dosing in dogs. Type of data set: in vivo, beagle dogs. The note with it: sublingual and subcutaneous dosing at 1.0 mg/kg vs oral 15 mg/kg. Here is the method: For control, the dogs are administered empty capsules. For the Compound of Formula I, the dogs are administered normal-release oral capsules. Blood samples are obtained at 0.25 hours, 0.5 hours, 1 hour, 4 hours, 8 hour and 24 hours. […] Cmax, Tmax and area-under-the-curve (AUC, 0-24 hours) are calculated using Phoenix WinNonlin software.

Data set [2] concerns the target H1 histaminergic receptors (Homo sapiens, UniProt P35367). The conditions noted are these: cited from earlier work.
Another data set relates to muscarinic receptors. The note with it: cited from earlier work.
Another data set addresses T1, 5-HT2C receptors (Homo sapiens, UniProt P28335).
T1 sequence (P28335 33-458): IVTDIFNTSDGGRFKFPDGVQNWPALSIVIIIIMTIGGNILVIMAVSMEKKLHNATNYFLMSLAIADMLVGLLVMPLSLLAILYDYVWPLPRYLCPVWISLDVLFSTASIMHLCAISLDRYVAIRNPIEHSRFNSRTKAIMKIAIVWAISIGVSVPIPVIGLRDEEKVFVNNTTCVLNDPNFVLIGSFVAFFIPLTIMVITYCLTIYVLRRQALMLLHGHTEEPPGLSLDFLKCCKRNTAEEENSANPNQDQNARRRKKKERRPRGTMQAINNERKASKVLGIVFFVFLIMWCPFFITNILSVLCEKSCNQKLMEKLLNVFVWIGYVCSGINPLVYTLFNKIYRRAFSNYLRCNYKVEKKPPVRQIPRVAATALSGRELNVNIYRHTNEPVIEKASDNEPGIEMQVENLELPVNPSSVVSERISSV
The note with it: cited from earlier work.

Molecules are shown by their SMILES.

H1 histaminergic receptors, sequence (P35367 whole entry): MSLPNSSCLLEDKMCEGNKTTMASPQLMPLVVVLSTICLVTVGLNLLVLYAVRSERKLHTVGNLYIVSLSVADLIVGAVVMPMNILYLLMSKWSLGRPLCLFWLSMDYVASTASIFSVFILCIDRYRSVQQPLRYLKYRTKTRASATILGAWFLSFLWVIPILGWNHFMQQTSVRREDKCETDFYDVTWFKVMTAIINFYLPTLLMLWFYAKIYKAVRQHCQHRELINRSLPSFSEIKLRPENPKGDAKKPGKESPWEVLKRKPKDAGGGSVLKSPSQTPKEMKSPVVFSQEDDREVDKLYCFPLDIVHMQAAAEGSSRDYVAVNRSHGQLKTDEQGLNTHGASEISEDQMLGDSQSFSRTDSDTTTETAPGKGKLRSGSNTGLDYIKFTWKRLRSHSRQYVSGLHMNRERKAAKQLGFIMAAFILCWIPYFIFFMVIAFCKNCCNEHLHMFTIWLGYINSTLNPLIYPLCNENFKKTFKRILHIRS

On to `CN1CCN2c3c(cccc31)[C@@H]1CN(CCCC(=O)c3ccc(F)cc3)CC[C@@H]12` [Compound of Formula I, 1-(4-fluoro-phenyl)-4-((6bR,10aS)-3-methyl-2,3,6b,9,10,10a-hexahydro-1H,7H-pyrido[3′,4′:4,5]pyrrolo[1,2,3-de]quinoxalin-8-yl)-butan-1-one], for which the “24-hour AUC, times higher than oral dosing at 15 mg/kg” value in data set [1] is on record as “about three”. Also, in data set [2], the “binding to H1 histaminergic receptors” value was “negligible binding”. In addition, in the data set on muscarinic receptors, the “binding to muscarinic receptors” value was “negligible binding”. Further, the “binding to 5-HT2C receptors” value at 5-HT2C receptors is listed as “negligible binding”.
